SMILES strings stand for the structures.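 Assay format: 96-well plates, 48-hour exposure. At the GI50, growth is halved. At the TGI there is no net growth.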 Bounds are passed on as bounds.

Test systems include SR leukemia; HOP-18 NSCLC; DLD-1 colon; KM20L2 colon; LXFL 529 NSCLC; MDA-MB-231 breast; MDA-N; PC-3 prostate; MDA-MB-435; HS 578T breast; M19-MEL melanoma; XF 498 CNS; BT-549 breast.
Common to all, as to experiment: NCI tumour cell line growth inhibition, 48 h

`CS(=O)(=O)OCc1c(O)c2c(c(O)c1COS(C)(=O)=O)C(=O)C=CC2=O`: the TGI with SR leukemia, with HOP-18 NSCLC, in the assay on DLD-1 colon, in the assay with KM20L2 colon and in the assay on LXFL 529 NSCLC was over 100 µM in each case.

`Cc1ccc(S(=O)(=O)NCCSS(=O)(=O)c2ccc(C)cc2)cc1`: the TGI in the assay with MDA-MB-231 breast was over 100 µM; in the assay on MDA-N, 56.8 µM; in the assay with SR leukemia it was 39 µM; with PC-3 prostate, 94.8 µM; in the assay on MDA-MB-435, 52 µM; in the assay with HS 578T breast, over 100 µM.

Turning to `O=C(/N=C/c1c(O)c2ccccc2oc1=O)NC1CCCCC1`, the TGI in the assay with SR leukemia was over 100 µM; in the assay on M19-MEL melanoma it was over 100 µM; in the assay on KM20L2 colon it was over 100 µM; with XF 498 CNS it was 93 µM; with LXFL 529 NSCLC it was over 100 µM.

Regarding `CC(C)Cc1cccc(C(C)C)c1NC(=O)CCC(=O)N/N=C1\C(=N/NC(=O)CCC(=O)Nc2c(C(C)C)cccc2C(C)C)C(c2ccc3c(c2)OCO3)Oc2ccccc21` (centres undefined), the TGI with SR leukemia, with M19-MEL melanoma, with DLD-1 colon, in the assay with KM20L2 colon, with XF 498 CNS and with LXFL 529 NSCLC was over 100 µM in each case.

In the case of `CN(C)CCC(C(=O)C(C)(C)C)c1ccccn1` (centres undefined), the TGI with MDA-MB-231 breast, in the assay on MDA-N, in the assay on SR leukemia, with PC-3 prostate, with MDA-MB-435 and in the assay on HS 578T breast was over 100 µM in each case. Moreover, the TGI in the assay with BT-549 breast is over 100 µM.

With `O=c1cc(-c2nc3ccccc3[nH]2)[nH]c2nc(-c3nc4ccccc4[nH]3)cc(-c3ccc(Cl)cc3)c12`, the TGI with MDA-MB-231 breast is 35.7 µM; in the assay with MDA-N, 59.6 µM; in the assay on SR leukemia, 46.6 µM; in the assay with PC-3 prostate, over 100 µM; in the assay with MDA-MB-435, 35.3 µM; in the assay on HS 578T breast it was over 100 µM. For the same compound, the TGI in the assay on BT-549 breast is over 100 µM.

`ClCC1(CCl)COC1`: the TGI in the assay with MDA-MB-231 breast, in the assay on MDA-N, in the assay with SR leukemia, in the assay with PC-3 prostate, in the assay with MDA-MB-435 and with HS 578T breast was over 100 µM in each case.

On to `C[C@H](O)C(=O)SC[C@H](NC(=O)CC[C@@H](N)C(=O)O)C(=O)NCC(=O)O`, for which the TGI with SR leukemia, in the assay on M19-MEL melanoma, with DLD-1 colon, in the assay on KM20L2 colon and with LXFL 529 NSCLC was over 100 µM throughout.

As for `COc1ccc(-n2cc(-c3ccc(OC)c(OC)c3)nc2SCc2ccccc2)cc1Cl`, the GI50 with MDA-MB-231 breast was 26.9 µM; with SR leukemia, 16 µM; in the assay on PC-3 prostate, 13.8 µM; in the assay on MDA-MB-435, 27.8 µM; in the assay with HS 578T breast it was 25.3 µM; in the assay with BT-549 breast, 14.9 µM. In addition, the TGI in the assay on MDA-MB-231 breast was over 100 µM; in the assay on SR leukemia, 51.1 µM; in the assay with PC-3 prostate it was over 100 µM; in the assay with MDA-MB-435, over 100 µM; with HS 578T breast it was over 100 µM; with BT-549 breast, 42.5 µM.

As to `FC(F)(F)C1=NC(=NNc2nnc(-c3ccccc3)c(-c3ccccc3)n2)N=C(C(F)(F)F)C1`, the TGI in the assay with HOP-18 NSCLC was over 100 µM; in the assay on M19-MEL melanoma, over 68.4 µM; in the assay with DLD-1 colon, over 100 µM; in the assay with KM20L2 colon it was over 100 µM; in the assay on XF 498 CNS, over 88.5 µM.

Regarding `C=C1C(=O)OC2/C=C(\C)CC(O)/C=C(/CO)CC(OC(=O)/C(C)=C/C)C12` (centres undefined), the TGI is 49.7 µM in the assay on HOP-18 NSCLC; 92 µM in the assay with M19-MEL melanoma; 139 µM with DLD-1 colon; 246 µM in the assay on KM20L2 colon; 37.2 µM with XF 498 CNS.

These data come from PubChem BioAssay (NCI).
